From US8975415B2, “Chromane compounds” (CoMentis, Inc., priority 2012, dated 2015)
Where two headings read alike, the source gives them in different places.

Tests used:
hERG potassium channel = hERG potassium channel (Homo sapiens (Human), UniProt Q12809); assay: hERG inhibition, automated planar patch-clamp in hERG-expressing CHO cells
BACE1 [1] = target: T1, BACE1 (Homo sapiens (Human), UniProt P56817); assay: Measurement of BACE1 inhibition by fluorescence resonance energy transfer (FRET), MCA substrate; settings: FRET; for IC50: read-out: Test Example 1 IC50, MCA-SEVNLDAEFK(DNP)-NH2 substrate, pH 4.4; for Ki: read-out: Test Example 1 BACE1 MCA Ki, MCA substrate
Target sequence in this assay (P56817 75-416): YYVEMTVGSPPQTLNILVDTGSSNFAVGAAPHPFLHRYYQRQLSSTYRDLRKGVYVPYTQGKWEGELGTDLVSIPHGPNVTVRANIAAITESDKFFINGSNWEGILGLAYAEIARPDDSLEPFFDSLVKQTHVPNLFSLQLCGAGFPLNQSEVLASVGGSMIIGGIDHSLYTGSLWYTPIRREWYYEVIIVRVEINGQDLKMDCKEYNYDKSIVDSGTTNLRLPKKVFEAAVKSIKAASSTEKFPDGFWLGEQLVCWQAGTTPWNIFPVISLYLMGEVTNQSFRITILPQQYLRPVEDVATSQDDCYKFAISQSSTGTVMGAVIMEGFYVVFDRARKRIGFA

BACE1 [2] = target: T1, BACE1; assay: Measurement of Aβ production inhibition in cell (SK-N-BE(2) neuroblastoma cells, Aβ40 ELISA); settings: SK-N-BE(2) cells, 6 hours
Target sequence in this assay (P56817 46-501): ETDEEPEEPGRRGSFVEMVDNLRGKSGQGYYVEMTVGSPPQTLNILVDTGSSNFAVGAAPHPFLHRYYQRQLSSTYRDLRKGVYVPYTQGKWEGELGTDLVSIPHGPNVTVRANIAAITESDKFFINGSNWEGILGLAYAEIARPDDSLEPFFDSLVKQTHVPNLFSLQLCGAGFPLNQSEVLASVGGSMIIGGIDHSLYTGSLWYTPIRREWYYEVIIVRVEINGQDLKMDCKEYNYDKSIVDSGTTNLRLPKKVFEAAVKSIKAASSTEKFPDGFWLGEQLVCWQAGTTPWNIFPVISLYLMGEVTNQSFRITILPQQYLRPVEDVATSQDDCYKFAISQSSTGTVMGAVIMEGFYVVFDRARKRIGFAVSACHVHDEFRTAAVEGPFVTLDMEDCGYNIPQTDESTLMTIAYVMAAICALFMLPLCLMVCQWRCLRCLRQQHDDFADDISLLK
Method: The potency of compounds against BACE1 activity was determined in a cellular assay of Aβ production. […] Test compounds were dissolved in dimethyl sulfoxide and diluted with dimethyl sulfoxide and put into RPMI1640/5% FBS/penicillin-streptomycin media (final dimethyl sulfoxide concentration is 0.5%). […] CellTiter-Glo Substrate was dissolved into CellTiter-Glo Buffer and added to the plates in 95 μL/well. After shaking the plates for 2 minutes, the whole sample was transferred into a white 96-well plate and luminescence was measured for ATP quantification as the cell viability. Aβ concentration measured by ELISA was normalized by the viability of the corresponding cells.

[3] = read-out: Test Example 5 hERG IC50, whole-cell patch clamp, room temperature
[4] = Test Example 3 IC50, Aβ40 production
[5] = read-out: Test Example 3 IC50, Aβ40 production

hERG potassium channel, sequence (Q12809 whole entry): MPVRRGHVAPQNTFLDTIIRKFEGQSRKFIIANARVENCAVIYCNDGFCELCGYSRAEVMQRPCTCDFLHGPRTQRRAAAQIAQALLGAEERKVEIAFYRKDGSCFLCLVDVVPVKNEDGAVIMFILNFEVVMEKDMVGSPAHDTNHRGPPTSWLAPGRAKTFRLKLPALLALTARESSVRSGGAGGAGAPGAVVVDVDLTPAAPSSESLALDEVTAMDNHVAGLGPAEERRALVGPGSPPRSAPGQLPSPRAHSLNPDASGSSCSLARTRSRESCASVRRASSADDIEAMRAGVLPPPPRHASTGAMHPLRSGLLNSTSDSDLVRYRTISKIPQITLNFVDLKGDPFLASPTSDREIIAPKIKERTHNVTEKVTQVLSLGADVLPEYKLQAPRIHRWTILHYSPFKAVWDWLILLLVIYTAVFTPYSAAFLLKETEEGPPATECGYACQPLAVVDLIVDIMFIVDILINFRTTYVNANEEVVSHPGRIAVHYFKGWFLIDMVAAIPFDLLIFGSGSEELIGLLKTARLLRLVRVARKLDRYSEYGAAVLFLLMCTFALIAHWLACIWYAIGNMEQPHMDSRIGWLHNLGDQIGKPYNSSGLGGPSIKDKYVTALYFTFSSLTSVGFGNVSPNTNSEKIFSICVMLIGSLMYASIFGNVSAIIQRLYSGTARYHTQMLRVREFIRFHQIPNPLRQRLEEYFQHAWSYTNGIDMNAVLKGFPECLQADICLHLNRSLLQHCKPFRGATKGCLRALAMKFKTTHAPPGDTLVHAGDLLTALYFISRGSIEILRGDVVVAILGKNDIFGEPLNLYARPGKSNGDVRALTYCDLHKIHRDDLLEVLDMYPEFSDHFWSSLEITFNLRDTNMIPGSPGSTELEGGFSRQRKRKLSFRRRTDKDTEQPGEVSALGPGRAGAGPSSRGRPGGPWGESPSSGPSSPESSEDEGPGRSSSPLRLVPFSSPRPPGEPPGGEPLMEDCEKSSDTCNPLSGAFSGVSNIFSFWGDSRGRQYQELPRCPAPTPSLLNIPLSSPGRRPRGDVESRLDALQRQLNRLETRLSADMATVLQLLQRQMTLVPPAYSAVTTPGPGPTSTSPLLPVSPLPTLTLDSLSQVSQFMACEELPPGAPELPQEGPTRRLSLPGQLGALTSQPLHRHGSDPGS

Compound	IC50 (BACE1 [1])	IC50 (BACE1 [2]; [4])	further results
C[C@H]1Oc2ccc(-c3cccnc3F)cc2[C@@]2(COC(N)=N2)C12COC2 (racemic) [RP 77]	–	–	IC50 (hERG potassium channel): > 10 µM
Cc1cc(C#N)cnc1C(=O)Nc1ccc2c(c1)C1(COC(N)=N1)C1(CC1)CO2 (stereo not shown) [RP 191]	–	–	IC50 (hERG potassium channel; [3]): > 10 µM
NC1=NC2(CO1)c1cc(Br)ccc1OC(CC1CC1)C21COC1 (single isomer, unassigned) [RP 16a]	9.54 µM	–	IC50 (hERG potassium channel; [3]): > 10 µM
Cc1cnc(F)c(-c2ccc3c(c2)C2(COC(N)=N2)C2(COC2)C2(CCC2)O3)c1 (stereo not shown) [RP 116, 6′-(2-fluoro-5-methylpyridin-3-yl)trispiro[cyclobutane-1,2′-chromene-4′,4″-[1,3]oxazole-3′,3′″-oxetan]-2″-amine]	–	–	IC50 (hERG potassium channel; [3]): > 10 µM
COc1cccc(-c2ccc3c(c2)C2(COC(N)=N2)C2(COC2)C(C)(C)O3)c1 (stereo not shown) [RP 142]	0.401 µM	0.15 µM	–
CC1(C)Oc2ccc(NC(=O)c3ccc(F)cn3)cc2C2(COC(N)=N2)C12COC2 (stereo not shown) [Example 28]	–	–	IC50 (BACE1 [2]; [5]): 0.019 µM; Ki (BACE1 [1]): 0.117 µM
CC#Cc1cncc(-c2ccc3c(c2)C2(COC(N)=N2)C2(CCC2)CO3)c1 (stereo not shown) [RP 113]	1.11 µM	0.47 µM	–
Cc1cnc(Cl)c(-c2ccc3c(c2)C2(COC(N)=N2)C2(COC2)C(C)(C)O3)c1 (stereo not shown) [RP 151]	1.36 µM	0.28 µM	–
N#Cc1ccc(C(=O)Nc2ccc3c(c2)C2(COC(N)=N2)C2(CC2)CO3)nc1 (stereo not shown) [RP 196]	0.38 µM	0.053 µM	Ki (BACE1 [1]): 0.342 µM
Cc1cc(-c2ccc3c(c2)C2(COC(N)=N2)C2(COC2)C(C)(C)O3)cnc1F (stereo not shown) [RP 157]	2.8 µM	0.66 µM	–
CC1(C)Oc2ccc(-c3cc(F)cc(F)c3)cc2C2(COC(N)=N2)C12COC2 (stereo not shown) [RP 147]	0.621 µM	0.17 µM	–
CC1(C)Oc2ccc(-c3cncnc3)cc2C2(COC(N)=N2)C12COC2 (stereo not shown) [RP 69]	0.397 µM	0.04 µM	–
NC1=NC2(CO1)c1cc(-c3cncc(F)c3)ccc1OC1(CCC1)C21COC1 (stereo not shown) [RP 70]	1.75 µM	0.96 µM	–
COc1cnc(C(=O)Nc2ccc3c(c2)C2(COC(N)=N2)C2(CC2)CO3)cn1 (stereo not shown) [RP 193]	1.04 µM	0.081 µM	–
CC#Cc1cncc(-c2ccc3c(c2)C2(COC(N)=N2)C2(COC2)C(CC2CC2)O3)c1 (stereo not shown) [RP 205]	0.126 µM	0.022 µM	Ki (BACE1 [1]): 0.0825 µM
NC1=NC2(CO1)c1cc(-c3cncc(OCC(F)(F)C(F)F)c3)ccc1OCC21CC1 (stereo not shown) [RP 64]	6.12 µM	2.3 µM	–
Cc1cc(F)cc(-c2ccc3c(c2)C2(COC(N)=N2)C2(COC2)C(C)(C)O3)c1 (stereo not shown) [RP 148]	0.614 µM	0.48 µM	–
NC1=NC2(CO1)c1cc(C3=CCCCC3)ccc1OC1(CCC1)C21COC1 (stereo not shown) [RP 135]	3.27 µM	1.8 µM	–
COc1cncc(-c2ccc3c(c2)[C@@]2(COC(N)=N2)C2(COC2)[C@@H](C)O3)c1 (racemic) [RP 81]	1.89 µM	0.51 µM	–
CC1(C)Oc2ccc(-c3cccc(C4CC4)c3)cc2C2(COC(N)=N2)C12COC2 (stereo not shown) [RP 140]	0.389 µM	0.41 µM	–
COc1cnc(C(=O)Nc2ccc3c(c2)C2(COC(N)=N2)C2(COC2)C(C)(C)O3)cn1 (stereo not shown) [Example 227]	–	–	IC50 (hERG potassium channel; [3]): > 10 µM
COc1cncc(-c2ccc3c(c2)C2(COC(N)=N2)C2(COC2)C2(CCC2)O3)c1 (stereo not shown) [RP 72]	0.817 µM	0.068 µM	–
NC1=NC2(CO1)c1cc(-c3cc(F)ccc3F)ccc1OC1(CCC1)C21COC1 (stereo not shown) [RP 130]	1.87 µM	1.7 µM	–
COc1cccc(-c2ccc3c(c2)C2(COC(N)=N2)C2(COC2)C2(CCC2)O3)c1 (stereo not shown) [RP 126]	0.696 µM	1.2 µM	–
CC1(C)Oc2ccc(-c3cc(F)ncc3Cl)cc2C2(COC(N)=N2)C12COC2 (stereo not shown) [RP 158]	0.93 µM	0.37 µM	–
CC1(C)Oc2ccc(NC(=O)c3ncc(Cl)cc3F)cc2C2(COC(N)=N2)C12COC2 (stereo not shown) [Example 30]	–	–	IC50 (BACE1 [2]; [5]): 0.0023 µM; Ki (BACE1 [1]): 0.0515 µM

Compound	IC50 (BACE1 [1])	IC50 (BACE1 [2]; [4])	further results
NC1=NC2(CO1)c1cc(Nc3ncccc3Cl)ccc1OC1(CCC1)C21COC1 (stereo not shown) [RP 44]	0.602 µM	0.098 µM	–
NC1=NC2(c3cc(-c4cncnc4)ccc3OCC23CC3)C(F)(F)CO1 (stereo not shown) [RP 206]	4.91 µM	> 30 µM	–
NC1=NC2(CO1)c1cc(-c3cncnc3)ccc1OCC21CCCO1 (stereo not shown) [RP 97]	20.2 µM	2.6 µM	–
NC1=NC2(CO1)c1cc(-c3cccnc3F)ccc1OCC21CC1 (stereo not shown) [RP 103]	2.19 µM	0.45 µM	–
COc1ccc(F)c(-c2ccc3c(c2)C2(COC(N)=N2)C2(COC2)CO3)c1 (stereo not shown) [RP 33]	1.52 µM	0.95 µM	–
CC(C)CC1Oc2ccc(-c3cncnc3)cc2C2(COC(N)=N2)C12COC2 (stereo not shown) [RP 93]	0.629 µM	0.37 µM	–
NC1=NC2(CO1)c1cc(-c3cncnc3)ccc1OCC21COC1 (stereo not shown) [RP 36]	2.9 µM	0.81 µM	–
C#Cc1cncc(-c2ccc3c(c2)C2(COC(N)=N2)C2(COC2)CO3)c1 (stereo not shown) [RP 23]	0.519 µM	0.9 µM	–
CCCC1Oc2ccc(-c3cncnc3)cc2C2(COC(N)=N2)C12COC2 (stereo not shown) [RP 94]	0.862 µM	0.38 µM	–
COc1cccnc1Nc1ccc2c(c1)C1(COC(N)=N1)C1(COC1)CO2 (stereo not shown) [RP 26]	3.75 µM	0.069 µM	–
Cc1cccc(-c2ccc3c(c2)C2(COC(N)=N2)C2(COC2)C2(CCC2)O3)c1 (stereo not shown) [RP 127]	2.27 µM	1.8 µM	–
CCOc1cc(F)cc(-c2ccc3c(c2)C2(COC(N)=N2)C2(COC2)C2(CCC2)O3)c1 (stereo not shown) [RP 133]	1.67 µM	2.8 µM	–
NC1=NC2(CO1)c1cc(-c3cncc(C#CC4CC4)c3)ccc1OC1(CCC1)C21COC1 (stereo not shown) [RP 48, 6′-[5-(cyclopropylethynyl)pyridin-3-yl]trispiro[cyclobutane-1,2′ chromene-4′,4″-[1,3]oxazole-3′,3′″-oxetan]-2″-amine]	1.13 µM	0.69 µM	–
NC1=NC2(CO1)c1cc(NC(=O)c3ncc(Br)cn3)ccc1OCC21CC1 (stereo not shown) [RP 189]	0.661 µM	0.043 µM	Ki (BACE1 [1]): 0.623 µM
NC1=NC2(CO1)c1cc(-c3cncc(OCC(F)(F)F)c3)ccc1OCC21CC1 (stereo not shown) [RP 58]	1.48 µM	0.18 µM	–
NC1=NC2(CS1)c1cc(Br)ccc1OCC21COC1 (stereo not shown) [RP 41, 6′-bromodispiro[oxetane-3,3′-chromene-4′,4″-[1,3]thiazol]-2″-amine]	24.8 µM	> 30 µM	–
CC1(C)Oc2ccc(-c3cccnc3Cl)cc2C2(COC(N)=N2)C12COC2 (stereo not shown) [RP 156]	2.61 µM	0.18 µM	–
CC#Cc1cncc(-c2cc3c(cc2F)OCC2(CC2)C32COC(N)=N2)c1 (stereo not shown) [RP 112]	0.4 µM	0.66 µM	–
N#Cc1cccc(-c2ccc3c(c2)C2(COC(N)=N2)C2(COC2)C2(CCC2)O3)c1 (stereo not shown) [RP 128]	1.68 µM	1.5 µM	–
COCC#Cc1cncc(-c2ccc3c(c2)C2(COC(N)=N2)C2(COC2)CO3)c1 (stereo not shown) [RP 19, 6′-[5-(3-methoxyprop-1-yn-1-yl)pyridin-3-yl]dispiro[1,3-oxazole-4,4′-chromene-3′,3″-oxetan]-2-amine]	2.31 µM	0.43 µM	–
N#Cc1ncccc1-c1ccc2c(c1)C1(COC(N)=N1)C1(COC1)C1(CCC1)O2 (stereo not shown) [RP 115, 3-(2″-aminotrispiro[cyclobutane-1,2′-chromene-4′,4″-[1,3]oxazole-3′,3′″-oxetan]-6′-yl)pyridine-2-carbonitrile]	3.31 µM	1.1 µM	–
NC1=NC2(CO1)c1cc(-c3cc(Cl)cnc3F)ccc1OC1(CCC1)C21COC1 (stereo not shown) [RP 73]	0.827 µM	0.07 µM	–
C[C@@H]1Oc2ccc(-c3cccnc3F)cc2[C@@]2(COC(N)=N2)C12COC2 (racemic) [RP 79]	–	–	IC50 (hERG potassium channel; [3]): > 10 µM
COc1cc(-c2ccc3c(c2)C2(COC(N)=N2)C2(COC2)C2(CCC2)O3)c(F)cn1 (stereo not shown) [RP 122]	2.74 µM	1.1 µM	–
CC1(C)Oc2ccc(-c3cccnc3F)cc2C2(COC(N)=N2)C12COC2 (stereo not shown) [RP 82]	0.348 µM	0.036 µM	–
CC1(C)Oc2ccc(-c3cncnc3)cc2C2(COC(N)=N2)C12COC2 (single isomer, unassigned) [RP 51b, 2′,2′-dimethyl-6′-(pyrimidin-5-yl)dispiro[1,3-oxazole-4,4′-chromene-3′,3″-oxetan]-2-amine]	0.172 µM	0.072 µM	Ki (BACE1 [1]): 0.137 µM
